Data: publication PMC10525570, “Antiviral Activity of Anthranilamide Peptidomimetics against Herpes Simplex Virus 1 and a Coronavirus” (Antibiotics, 2023)
“Also recorded” adds a separate entry of the source. Read-outs that look alike come from different tables or passages of the source.

Legend:
MHV-1 [1] = assay: Virus pre-treatment (direct virus inactivation) plaque assay, MHV-1; type: cell-based, Murine hepatitis virus 1; conditions: for Plaque formation, MHV-1: quadruplicate
Protocol: (§1) The peptidomimetics were evaluated for their antiviral activity using three different assays: virus pre-treatment, cell pre-treatment, and post-treatment assays, with the main distinction being the timing of the compound addition. Cells were seeded in 24-well plates at a density of 2.5 × 10^5 cells/well and incubated for 48 h at 37 °C. In all assays, the compounds were added to DMEM medium in the absence of fetal bovine serum (FBS). All experiments were performed in duplicate with two independent replicates. The inhibitory effect on viral infectivity was determined by comparing the number of plaques in wells treated with the test compounds (peptidomimetics) to the plaques observed in the control wells (cells infected with the virus without test compounds).
(§2) Virus pre-treatment assay: In this assay, the test compounds were added to the virus (1 × 10^3 PFU/mL) and incubated for 3 h at 37 °C. After incubation, each mixture (virus/peptide) was diluted in DMEM medium containing 10% FBS to neutralize the peptides or mimics. The dilutions were then added to the cell monolayers for 1 h, followed by the addition of an agar overlay containing 1% agar. The cells were further incubated for 72 h, after which they were fixed, stained, and the number of plaques was counted.

HSV-1 [2] = assay: Virus pre-treatment (direct virus inactivation) plaque assay, HSV-1; type: cell-based, herpes simplex virus 1
Protocol: as §1, §2

[3] = MTT cytotoxicity assay, Vero cells; type: cell-based; conditions: African green monkey, read-out: HSV-1 (Vero Cells) CC50
Protocol: (§3) The MTT assay was used to assess the cytotoxicity of compounds against the viral host (A9 and Vero) cells. This assay relies on the reduction of the yellow MTT compound to a dark blue formazan product by viable and metabolically active cells. Viral host cells were cultured in 96-well plates and incubated at 37 °C in a 5% CO2 atmosphere, treated with various concentrations of the test compounds together with further incubation for 24 h. After incubation, 100 μL of a 5 mg/mL MTT solution was added to each well and incubated for 2–4 h at 37 °C. The supernatant was then discarded, and 100 μL of 100% DMSO was added to dissolve the formazan salts with vigorous agitation for 10 min at room temperature. The absorbance at 540 nm was measured using a spectrophotometer. Cytotoxicity was determined by comparing the absorbance values in the test and control wells expressed as a percentage. A total of 100 μL DMSO was used for negative control (ctr−), while 100 μL of culture medium represented the positive control (ctr+). All experiments were repeated three times, and the mean values with standard deviations are reported. Nonlinear regression analysis was performed using GraphPad Prism software to determine the CC50 (concentration at which 50% of cells are killed).

HSV-1 [4] = assay: Cell pre-treatment plaque assay, HSV-1 on Vero cells; type: cell-based, herpes simplex virus 1; conditions: Vero cells preincubated 24 h with 15.625, 7.5, 3.75 µM before infection
Protocol: (§4) In order to explore additional potential mechanisms, the ability of compounds 11 and 14 to reduce the ability of the two viruses to bind to their respective mammalian host cells was examined. Three concentrations (15.625 µM, 7.5 µM, and 3.75 µM) of compounds 11 and 14, all below their cytotoxic thresholds, were allowed to interact with A9 and Vero cells for 24-h before virus infection. The impact of these interactions was assessed using a plaque assay to determine inhibitory effects.
as §1, with “All experiments were performed in duplicate with two independent replicates.” left out
(§5) Cell pre-treatment assay: The cells were treated with the test compounds and incubated for 24 h at 37 °C. […] The cells were then fixed, stained, and the number of plaques was determined.

HSV-1 [5] = assay: Post-viral infection plaque assay, HSV-1 on Vero cells; type: cell-based, herpes simplex virus 1; conditions: compound added 3 h post-infection, 15.625, 7.5, 3.75 µM
Protocol: (§6) In order to determine if compounds 11 and 14 were able to inhibit aspects of viral infection after the initial binding stage to host mammalian cells, the same concentrations of the compounds were administered to the cells after a 3-h interval post-infection.
as §1
(§7) Post-viral infection assay: The cells were first incubated with viruses (1 × 10^3 PFU/mL) for 3 h at 37 °C to ensure complete cellular entry. Following that, the test compounds were added and incubated for 24 h at 37 °C. […] The cells were then fixed, stained, and the number of plaques was determined.

[6] = MTT cytotoxicity assay, A9 cells; type: cell-based; conditions: mouse, read-out: MHV-1 (A9 Cells) CC50
Protocol: as §3

MHV-1 [7] = assay: Transmission electron microscopy of treated MHV-1; design: species or system Murine hepatitis virus 1; conditions: virus treated at 37 °C for 2 h
Protocol: (§8) The viruses were treated with compound 11 for MHV-1 and 14 for HSV-1, both at 37 °C for 2 h. Subsequently, 10 µL of the treated mixture was placed on a glow-discharged carbon-coated 200 mesh copper grid and allowed to evaporate for 5 min. The sample was then stained with 1% phosphotungstic acid (pH 6.5) for 30 s to improve the contrast. After air-drying, the grids were examined using an FEI Tecnai G2 20 TEM machine.

MHV-1 [8] = assay: Cell pre-treatment plaque assay, MHV-1 on A9 cells; type: cell-based, Murine hepatitis virus 1; conditions: A9 cells preincubated 24 h with 15.625, 7.5, 3.75 µM before infection
Protocol: as §4
as §1, with “All experiments were performed in duplicate with two independent replicates.” left out
as §5

MHV-1 [9] = assay: Post-viral infection plaque assay, MHV-1 on A9 cells; type: cell-based, Murine hepatitis virus 1; conditions: compound added 3 h post-infection, 15.625, 7.5, 3.75 µM
Protocol: as §6, §1, §7

HSV-1 [10] = assay: Transmission electron microscopy of treated HSV-1; design: species or system herpes simplex virus 1; conditions: virus treated at 37 °C for 2 h
Protocol: as §8

[11] = Murine coronavirus, virus pre-treatment 3 h at 37 °C, plaque assay, read-out: MHV-1 IC50
[12] = Human alphaherpesvirus 1, virus pre-treatment 3 h at 37 °C, plaque assay, read-out: HSV-1 IC50
[13] = Murine coronavirus, Table 2, A9 cells, read-out: MHV-1 (A9 Cells) IC50
[14] = Human alphaherpesvirus 1, Table 2, Vero cells, read-out: HSV-1 (Vero Cells) IC50

Row | SMILES | IC50 (MHV-1 [1]; [11]) [µM] | IC50 (HSV-1 [2]; [12]) [µM] | IC50 (MHV-1 [1]; [13]) [µM] | IC50 (HSV-1 [2]; [14]) [µM] | other results
1 | NCCNC(=O)C(Cc1c[nH]c2ccccc12)NC(=O)c1ccccc1NC(=O)c1ccc2ccccc2c1 (stereo not shown) [Compound 1] | > 62.5 | > 62.5 |  |  | 
2 | NCCNC(=O)C(Cc1c[nH]c2ccccc12)NC(=O)c1cc(Br)ccc1NC(=O)c1ccc2ccccc2c1 (stereo not shown) [Compound 2] | > 62.5 | > 62.5 |  |  | 
3 | NCCNC(=O)C(Cc1c[nH]c2ccccc12)NC(=O)c1cc(F)ccc1NC(=O)c1ccc2ccccc2c1 (stereo not shown) [Compound 3] | > 62.5 | > 62.5 |  |  | 
4 | NCCNC(=O)C(Cc1c[nH]c2ccccc12)NC(=O)c1cc(Cl)ccc1NC(=O)c1ccc2ccccc2c1 (stereo not shown) [Compound 4] | > 62.5 | > 62.5 |  |  | 
5 | COc1ccc(NC(=O)c2ccc3ccccc3c2)c(C(=O)NC(Cc2c[nH]c3ccccc23)C(=O)NCCN)c1 (stereo not shown) [Compound 5] | > 62.5 | > 62.5 |  |  | 
6 | N=C(N)NCCNC(=O)C(Cc1c[nH]c2ccccc12)NC(=O)c1ccccc1NC(=O)c1ccc2ccccc2c1 (stereo not shown) [Compound 6] | > 62.5 | > 62.5 |  |  | 
7 | N=C(N)NCCNC(=O)C(Cc1c[nH]c2ccccc12)NC(=O)c1cc(Br)ccc1NC(=O)c1ccc2ccccc2c1 (stereo not shown) [Compound 7] | > 62.5 | 32.7 | > 62.5 | 32.8 | CC50 at 24 h [3]: 127 µM
8 | N=C(N)NCCNC(=O)C(Cc1c[nH]c2ccccc12)NC(=O)c1cc(F)ccc1NC(=O)c1ccc2ccccc2c1 (stereo not shown) [Compound 8] | > 62.5 | > 62.5 |  |  | 
9 | N=C(N)NCCNC(=O)C(Cc1c[nH]c2ccccc12)NC(=O)c1cc(Cl)ccc1NC(=O)c1ccc2ccccc2c1 (stereo not shown) [Compound 9] | > 62.5 | 14.8 | > 62.5 | 14.9 | CC50 at 24 h [3]: 45 µM
10 | COc1ccc(NC(=O)c2ccc3ccccc3c2)c(C(=O)NC(Cc2c[nH]c3ccccc23)C(=O)NCCNC(=N)N)c1 (stereo not shown) [Compound 10] | > 62.5 | > 62.5 |  |  | 
11 | NCCNC(=O)C(Cc1c[nH]c2ccccc12)NC(=O)c1cc(-c2ccc3ccccc3c2)ccc1N (stereo not shown) [Compound 11] |  |  | 2.18 | 34.9 | Inhibition of HSV-1 infection, cell pre-treatment (HSV-1 [4]): none of the compounds could inhibit virus infection; also recorded: Neither of the compounds was able to affect viral replication; Antiviral activity against HSV-1, post-infection treatment (HSV-1 [5]): no noticeable antiviral activity; also recorded: Neither of the compounds was able to affect viral replication; CC50 at 24 h [6]: 20.5 µM; Plaque formation, MHV-1 (MHV-1 [1]; MHV-1 treated with 31.25 µM): complete inhibition of plaque formation; Plaque formation, MHV-1 (MHV-1 [1]; MHV-1 treated with 62.5 µM): complete inhibition of plaque formation; IC50 (MHV-1 [1]; Murine coronavirus, read-out: MHV-1 IC50): 2.38 µM; inhibition at 2.18 µM (MHV-1 [1]; Murine coronavirus, at 2.18 µM): > 50%; IC50 (HSV-1 [2]; Human alphaherpesvirus 1, read-out: HSV-1 IC50): 34.9 µM; Effect on MHV-1 viral envelope (TEM) (MHV-1 [7]): disrupted viral envelope; also recorded: complete disruption of the viral envelope; Inhibition of MHV-1 infection, cell pre-treatment (MHV-1 [8]): none of the compounds could inhibit virus infection; also recorded: Neither of the compounds was able to affect viral replication; Antiviral activity against MHV-1, post-infection treatment (MHV-1 [9]): no noticeable antiviral activity; also recorded: Neither of the compounds was able to affect viral replication; CC50 at 24 h [3]: 16.7 µM
12 | NCCNC(=O)C(Cc1c[nH]c2ccccc12)NC(=O)c1cc(-c2ccc(-c3ccccc3)cc2)ccc1N (stereo not shown) [Compound 12] | > 62.5 | > 62.5 |  |  | 
13 | COc1ncc(-c2ccc(N)c(C(=O)NC(Cc3c[nH]c4ccccc34)C(=O)NCCN)c2)c(OC)n1 (stereo not shown) [Compound 13] | > 62.5 | > 62.5 |  |  | 
14 | NCCNC(=O)C(Cc1c[nH]c2ccccc12)NC(=O)c1cc(-c2ccccc2-c2ccccc2)ccc1N (stereo not shown) [Compound 14] | 6.3 | 13 | 6.3 | 13 | Inhibition of HSV-1 infection, cell pre-treatment (HSV-1 [4]): none of the compounds could inhibit virus infection; also recorded: Neither of the compounds was able to affect viral replication; Antiviral activity against HSV-1, post-infection treatment (HSV-1 [5]): no noticeable antiviral activity; also recorded: Neither of the compounds was able to affect viral replication; CC50 at 24 h [6]: 10.2 µM; Plaque formation, HSV-1 (HSV-1 [2]; HSV-1 treated with 31.25 µM): complete inhibition of plaque formation; Plaque formation, HSV-1 (HSV-1 [2]; HSV-1 treated with 62.5 µM, four replicates): complete inhibition of plaque formation; inhibition at 13 µM (HSV-1 [2]; Human alphaherpesvirus 1, at 13 µM): > 50%; Inhibition of MHV-1 infection, cell pre-treatment (MHV-1 [8]): none of the compounds could inhibit virus infection; also recorded: Neither of the compounds was able to affect viral replication; Antiviral activity against MHV-1, post-infection treatment (MHV-1 [9]): no noticeable antiviral activity; also recorded: Neither of the compounds was able to affect viral replication; Effect on HSV-1 viral envelope (TEM) (HSV-1 [10]): partial disruption of the HSV-1 envelope; also recorded: partial destruction of the HSV-1 envelope; CC50 at 24 h [3]: 15.2 µM
15 | NCCCCC(N)C(=O)NCCNC(=O)C(Cc1c[nH]c2ccccc12)NC(=O)c1cc(Br)ccc1NC(=O)c1ccc2ccccc2c1 (stereo not shown) [Compound 15] | 11.1 | > 62.5 | 11.1 | > 62.5 | CC50 at 24 h [6]: 62.7 µM
16 | NCCCCC(N)C(=O)NCCNC(=O)C(Cc1c[nH]c2ccccc12)NC(=O)c1cc(Br)ccc1NC(=O)c1ccc(-c2ccccc2)cc1 (stereo not shown) [Compound 16] | 22.5 | > 62.5 | 22.6 | > 62.5 | CC50 at 24 h [6]: 81.6 µM
17 | NCCCCC(N)C(=O)NCCNC(=O)C(Cc1c[nH]c2ccccc12)NC(=O)c1cc(Br)ccc1NC(=O)c1cccc(-c2ccccc2)c1 (stereo not shown) [Compound 17] | 11.8 | > 62.5 | 11.8 | > 62.5 | CC50 at 24 h [6]: 114 µM
